# Assay results taken from ChEMBL document CHEMBL1152238, “Perylene side chains modulate G-quadruplex conformation in biologically relevant DNA sequences” (Bioorg Med Chem, 2008).
# Activity calls are given as the source filed them. No cut-off for these calls is given here.
# Key:
# Nucleic Acid [1] = test: Binding affinity to negatively supercoiled Escherichia coli pBR322 DNA assessed as DNA intercalation at 20 to 50 uM at pH 6 after 30 mins by DNA unwinding assay; assay type: nucleic-acid assay
# Homo sapiens [2] = species on record: Homo sapiens; test: Binding affinity to 42GGG sequence of human telomeric DNA assessed as G-quadruplex formation at 25 degC upto 20 uM after 30 mins by electrophoretic mobility shift assay
# [3] = Binding affinity to 2GGG sequence of human telomeric DNA assessed as intramolecular folding leading to G-quadruplex formation at 25 degC after 30 mins by electrophoretic mobility shift assay
# Nucleic Acid [4] = test: Binding affinity to negatively supercoiled Escherichia coli pBR322 DNA assessed as DNA intercalation at 10 to 20 uM at pH 8 after 30 mins by DNA unwinding assay; assay type: nucleic-acid assay
# [5] = Binding affinity to pu27 sequence of c-myc DNA assessed as G-quadruplex stabilization at 25 degC after 30 mins at 25 degC by electrophoretic mobility shift assay in presence of Li+ ions
# Homo sapiens [6] = species on record: Homo sapiens; test: Binding affinity to 2GGG sequence of human telomeric DNA assessed as G-quadruplex stabilization at 25 degC after 30 mins by electrophoretic mobility shift assay in presence of Li+ ions
# Homo sapiens [7] = species on record: Homo sapiens; test: Binding affinity to 1GGG sequence of human telomeric DNA assessed as G-quadruplex stabilization at 25 degC after 30 mins by electrophoretic mobility shift assay in presence of Li+ ions
# Homo sapiens [8] = species on record: Homo sapiens; test: Binding affinity to 4GGG sequence of human telomeric DNA assessed as G-quadruplex formation at 14 uM at 25 degC after 30 mins by circular dichroism spectroscopy in presence of K+ ions
# [9] = Binding affinity to pu27 sequence of c-myc DNA assessed as G-quadruplex formation at 90 degC […] after 10 mins by electrophoretic mobility shift assay
# [10] = Binding affinity to 1GGG sequence of human telomeric DNA assessed as intramolecular folding leading to G-quadruplex formation at 25 degC after 30 mins by electrophoretic mobility shift assay
# Homo sapiens [11] = species on record: Homo sapiens; test: Binding affinity to 42GGG sequence of human telomeric DNA assessed as G-quadruplex formation at 90 degC after 10 mins by electrophoretic mobility shift assay
# Homo sapiens [12] = species on record: Homo sapiens; test: Binding affinity to double stranded 4GGG sequence of human telomeric DNA assessed as G-quadruplex formation at 0.1 to 10 uM at 37 degC after 24 hrs by electrophoretic mobility shift assay
# Homo sapiens [13] = species on record: Homo sapiens; test: Binding affinity to 4GGG sequence of human telomeric DNA assessed as G-quadruplex formation at 14 uM at 25 degC after 30 mins during thermal cycling by circular dichroism spectroscopy
# Homo sapiens [14] = species on record: Homo sapiens; test: Binding affinity to 4GGG sequence of human telomeric DNA assessed as G-quadruplex stabilization at 25 degC after 30 mins by electrophoretic mobility shift assay in presence of Li+ ions
# Homo sapiens [15] = species on record: Homo sapiens; test: Binding affinity to 2GGG sequence of human telomeric DNA assessed as G-quadruplex formation at 25 degC upto 15 uM after 24 hr by electrophoretic mobility shift assay
# [16] = Binding affinity to double stranded pu27 sequence of c-myc DNA assessed as G-quadruplex formation at 14 uM at 25 degC after 30 mins during thermal cycling by circular dichroism spectroscopy
# Homo sapiens [17] = species on record: Homo sapiens; test: Binding affinity to 4GGGtail sequence of human telomeric DNA assessed as G-quadruplex formation at 0.1 to 10 uM at 37 degC after 24 hrs by electrophoretic mobility shift assay
# Homo sapiens [18] = species on record: Homo sapiens; test: Binding affinity to 2GGG sequence of human telomeric DNA assessed as G-quadruplex formation at 25 degC upto 15 uM after 30 mins by electrophoretic mobility shift assay
# Homo sapiens [19] = species on record: Homo sapiens; test: Binding affinity to 2GGG sequence of human telomeric DNA assessed as stabilization of dimeric form of G-quadruplex DNA at 95 degC for 5 mins by electrophoretic mobility shift assay
# Homo sapiens [20] = species on record: Homo sapiens; test: Binding affinity to 2GGG sequence of human telomeric DNA assessed as G-quadruplex formation at 90 degC upto 15 uM after 10 mins by electrophoretic mobility shift assay
# [21] = Binding affinity to double stranded pu27 sequence of c-myc DNA assessed as intramolecular folding leading to G-quadruplex formation at 0.1 to 10 uM at 37 degC after 24 hrs by electrophoretic mobility shift assay
# [22] = Binding affinity to double stranded pu27 sequence of c-myc DNA assessed as intramolecular folding leading to G-quadruplex formation at 0.1 to 10 uM at 95 degC after 24 hrs by electrophoretic mobility shift assay
# Homo sapiens [23] = species on record: Homo sapiens; test: Binding affinity to 4GGG sequence of human telomeric DNA assessed as intramolecular folding leading to G-quadruplex formation at 25 degC after 30 mins by electrophoretic mobility shift assay
# Homo sapiens [24] = species on record: Homo sapiens; test: Binding affinity to unfolded 4GGG sequence of human telomeric DNA assessed as G-quadruplex formation at 25 degC by circular dichroism spectroscopy in presence of Li+ ions
# [25] = Binding affinity to pu27 sequence of c-myc DNA assessed as intramolecular folding leading to G-quadruplex formation at 25 degC after 30 mins by electrophoretic mobility shift assay
# Escherichia coli = test: Binding affinity to negatively supercoiled Escherichia coli pBR322 DNA assessed as self-aggregation at 10 to 20 uM at 37 degC after 30 mins by DNA unwinding assay
# Homo sapiens [26] = species on record: Homo sapiens; test: Binding affinity to 2GGG sequence of human telomeric DNA assessed as G-quadruplex formation at 14 uM at 25 degC after 30 mins by circular dichroism spectroscopy
# [27] = Binding affinity to double stranded pu27 sequence of c-myc DNA assessed as melting temperature at 14 uM at 25 degC after 30 mins by circular dichroism spectroscopy in presence of K+ ions
# Homo sapiens [28] = species on record: Homo sapiens; test: Binding affinity to 1GGG sequence of human telomeric DNA assessed as G-quadruplex formation at 14 uM at 25 degC after 30 mins by circular dichroism spectroscopy
# Homo sapiens [29] = species on record: Homo sapiens; test: Binding affinity to 4GGG sequence of human telomeric DNA assessed as melting temperature at 14 uM at 25 degC after 30 mins by circular dichroism spectroscopy in presence of K+ ions
SMILES,Activity (Nucleic Acid [1]),Activity (Homo sapiens [2]),EC50 [3] [µM],Activity (Nucleic Acid [4]),Activity [5],Activity (Homo sapiens [6]),Activity (Homo sapiens [7]),Activity (Homo sapiens [8]),Activity [9],EC50 [10] [µM],Activity (Homo sapiens [11]),Activity (Homo sapiens [12]),Activity (Homo sapiens [13]),Activity (Homo sapiens [14]),Activity (Homo sapiens [15]),Activity [16],Activity (Homo sapiens [17]),Activity (Homo sapiens [18]),Activity (Homo sapiens [19]),Activity (Homo sapiens [20]),also measured
O=C1c2ccc3c4ccc5c6c(ccc(c7ccc(c2c37)C(=O)N1CCNCCO)c64)C(=O)N(CCNCCO)C5=O,Active,Active,3.8,Active,Active,Active,Active,Active,inactive,11,Active,inactive,inactive,Active,–,–,–,–,–,–,–
CN(C)CCN1C(=O)c2ccc3c4ccc5c6c(ccc(c7ccc(c2c37)C1=O)c64)C(=O)N(CCN(C)C)C5=O,Active,Active,4,Active,Active,Active,Active,Active,inactive,8.7,Active,inactive,inactive,Active,Active,Active,inactive,Active,Active,Active,Activity [21]: inactive; Activity [22]: inactive
O=C1c2ccc3c4ccc5c6c(ccc(c7ccc(c2c37)C(=O)N1CCN1CCCCC1)c64)C(=O)N(CCN1CCCCC1)C5=O,Active,inactive,90,–,Active,Active,Active,Active,inactive,> 100,inactive,inactive,inactive,Active,Active,Active,Active,Active,Active,Active,Activity (Homo sapiens [23]): Active; Activity (Homo sapiens [24]): Active; Activity [25]: Active; Activity (Escherichia coli): inactive
C[N+](C)(C)CCN1C(=O)c2ccc3c4ccc5c6c(ccc(c7ccc(c2c37)C1=O)c64)C(=O)N(CC[N+](C)(C)C)C5=O,Active,–,12,Active,Active,Active,Active,Active,inactive,10.8,–,inactive,Active,Active,–,–,–,–,–,–,Activity (Homo sapiens [26]): inactive; Tm [27]: 83 °C; Activity (Homo sapiens [28]): inactive; Tm (Homo sapiens [29]): 64 °C
c1cc2c3ccc4c5c(ccc(c6ccc7c(c1CN(CCN1CCCCC1)C7)c26)c53)CN(CCN1CCCCC1)C4,Active,inactive,20,–,Active,Active,Active,Active,inactive,25,inactive,inactive,inactive,Active,–,–,–,–,–,–,Activity (Homo sapiens [23]): Active; Activity (Homo sapiens [24]): Active; Activity [25]: Active; Activity (Escherichia coli): inactive
